The record followed here is patent US9126997B1, “Synergistic effect of glucocorticoid receptor agonists in combination with proteosome inhibitors for treating leukemia and myeloma” (Northwestern University, priority 2010, dated 2015).

Experiment [1] concerns glucocorticoid receptor (GR). The experiment can be described thus: GR protein levels in cells after treatment with proteasome inhibitor. It is filed as cell-based, human. The text has this: (§1) Further, GR protein expression can be increased both in the absence and in the presence of […] such as glucocorticoids and SEGRA. Importantly, in the presence of GR ligands, cell pre-treatment with BZ results in the accumulation of GR whose function is defined by the ligand. […] Thus, SEGRA+BZ administered in combination will maximize the anti-inflammatory and anti-proliferative effects of SEGRA therapy that are based on GR transrepression, and at the same time will not induce metabolic side effects typical for glucocorticoids that are based on GR transactivation.

For experiment [2], the system named is glucocorticoid receptor (GR). The experiment can be described thus: Function (transactivation / transrepression) of GR accumulated after cell pre-treatment with BZ in the presence of GR ligands. Format: cell-based.
Source text: as §1

On to `CC(C)C[C@H](NC(=O)[C@H](Cc1ccccc1)NC(=O)c1cnccn1)B(O)O` [Bortezomib], for which the “endogenous GR protein levels” value in experiment [1] (human epithelial and lymphoid cell lines and primary cell cultures) was “strongly increases endogenous GR protein levels”. For the same compound, the “GR expression in GR-negative cells” value in experiment [1] (some glucocorticoid-resistant GR-negative cells) is “re-expression of GR”. Besides, the “GR accumulation and function” value in experiment [2] (in the presence of SEGRA) is “accumulation of GR whose activity is shifted towards transrepression”; in experiment [2] (in the presence of glucocorticoids), “accumulation of GR that is proficient in both transactivation and transrepression”.
